EP0500802B1, “LIPOSOMAL COMPOSITIONS” (priority 1989, dated 1991)

Assay: Ocular biodistribution of 14C-labelled cromolyn free drug after topical ocular instillation (liquid scintillation counting of tissues)
Type: in vivo, New Zealand white rabbits
Settings: for TISSUE CONCENTRATION WEIGHTED MEAN: Examples 1-3
Method: A. Preparation of test article. The sodium cromoglycate free drug test article used in the ocular biodistribution studies (Examples 1, 2 and 3) was prepared according to the following formula: […]
B. The [propane-2-¹⁴C]cromolyn sodium used in the biodistribution studies was prepared as follows: 1,3-dichloro[2-¹⁴C]propan-2-ol was reacted with 2,6-dihydroxyacetophenone to give 1,3-bis (2-acetyl-3-hydroxy phenoxy)-2-hydroxy[2-¹⁴C]propane. This was treated with base and diethyl oxalate followed by acid catalysed cyclisation to give diethyl [propane-2-¹⁴C]cromolyn. Hydrolysis with sodium hydroxide gave the final product which was purified by crystallisation from water acetone. C. Specification and Handling of Experimental Animals and Tissues. • 1. Description of Experimental Animals: Female, New Zealand white rabbits (Hare Marland) weighing 2-3 kg were used in these studies. Upon receipt each animal was assigned an identification number and examined for gross signs of general health. The animals were individually housed in standard rabbit cages and given access to food and water ad libitum. Animals were received approximately one week before initiation of the study. Prior to the study the animals were randomly assigned to treatment groups using either a random number table or generator. Immediately before treatment the ocular tissues were examined for signs of irritation. If irritation was observed, either another animal was substituted or the condition noted. Food was removed at the time of treatment Water was available ad libitum throughout. • 2. Topical Ocular Instillation of Test Article: Animals were treated unilaterally by topical ocular instillation using a positive displacement pipet. The eyelids were gently retracted and the dose applied onto the cornea taking care to avoid touching the tissue with the pipet tip. The animal was positioned such that the dose flowed into the lower cul-de-sac. After treatment the animals were returned to their cages. • 3. Collection of Plasma Sample: Immediately prior to euthanasia, animals were placed in a standard rabbit restrainer. A small amount of xylene was applied to an eartip to enhance blood flow. The lateral ear vein was lanced and approximately 500 ul of blood collected in a Microtainer Brand Tube with EDTA (Becton Dickinson). The tubes were mixed by inversion and centrifuged in a microfuge for 10 minutes. A 200 ul aliquot of plasma was transferred to a scintillation vial for further processing of the sample. • 4. Euthanasia: Animals were euthanized by intravenous injection of a lethal dose of T61 Euthanasia Fluid (Hoechst-Roussel) into a lateral ear vein. Death was verified by absence of respiration, heart beat, and ocular reflexes. • 5. Dissection of Ocular Tissues. • a. Removal of Aqueous Humor: Aqueous humor was removed using a 1 ml disposable, plastic syringe equipped with a 5/8"-27g needle. The needle was inserted into the anterior chamber at the limbus. The fluid was gently withdrawn and transferred to a preweighed scintillation vial. • b. Removal of Globe, Conjunctiva, and Nictitating Membrane: The eyelids were retracted using 6" curbed hemostats. Incisions were made at the corners of the eye to facilitate dissection of the conjunctiva. The palpebral conjunctiva and nictitating membrane were dissected free of the eyelids, muscle, and connective tissue using Wilmer-Converse conjunctiva scissors. The conjunctiva and nictitating membrane were grasped with straight Kirby tissue forceps to form a sack around the globe. The sack and its contents were removed from the socket as a unit using heavy curved nucleation scissors. Excess blood was removed from the outside of the sac by gentle blotting with gauze pads. • c. Dissection of Conjunctiva, and Nictitating Membrane: The nictitating membrane was grasped with straight Kirby tissue forceps. The conjunctiva was cut with heavy curved eye scissors along one edge of the nictitating membrane. […]

In the case of `O=C(O)c1cc(=O)c2c(OCC(O)COc3cccc4oc(C(=O)O)cc(=O)c34)cccc2o1` [CROMOLYN FREE DRUG, 5,5' -[(2-Hydroxy-1,3-propanediyl)bis-(oxy)]bis[4-oxo-4H-1-benzopyran-2-carboxylic acid]], the “TISSUE CONCENTRATION MEAN” value (AQUEOUS HUMOR, Rx eye, 2 HR, EXAMPLE 1) is reported as 70 ng Cromolyn/g or ml Tissue, the “TISSUE CONCENTRATION MEAN” value (AQUEOUS HUMOR, Rx eye, 2 HR, EXAMPLE 2) is reported as 36 ng Cromolyn/g or ml Tissue and the “TISSUE CONCENTRATION MEAN” value (AQUEOUS HUMOR, Rx eye, 2 HR, EXAMPLE 3) is reported as 129 ng Cromolyn/g or ml Tissue. The “TISSUE CONCENTRATION WEIGHTED MEAN” value (AQUEOUS HUMOR, Rx eye, 2 HR) was 39 ng Cromolyn/g or ml Tissue, the “TISSUE CONCENTRATION MEAN” value (AQUEOUS HUMOR, Rx eye, 4 HR, EXAMPLE 1) was 37 ng Cromolyn/g or ml Tissue and the “TISSUE CONCENTRATION MEAN” value (AQUEOUS HUMOR, Rx eye, 4 HR, EXAMPLE 2) was 29 ng Cromolyn/g or ml Tissue. The “TISSUE CONCENTRATION MEAN” value (AQUEOUS HUMOR, Rx eye, 4 HR, EXAMPLE 3) was 68 ng Cromolyn/g or ml Tissue, the “TISSUE CONCENTRATION WEIGHTED MEAN” value (AQUEOUS HUMOR, Rx eye, 4 HR) was 35 ng Cromolyn/g or ml Tissue and the “TISSUE CONCENTRATION MEAN” value (AQUEOUS HUMOR, Rx eye, 8 HR, EXAMPLE 1) was 16 ng Cromolyn/g or ml Tissue. The “TISSUE CONCENTRATION MEAN” value (AQUEOUS HUMOR, Rx eye, 8 HR, EXAMPLE 2) was 13 ng Cromolyn/g or ml Tissue, the “TISSUE CONCENTRATION MEAN” value (AQUEOUS HUMOR, Rx eye, 8 HR, EXAMPLE 3) was 10 ng Cromolyn/g or ml Tissue and the “TISSUE CONCENTRATION WEIGHTED MEAN” value (AQUEOUS HUMOR, Rx eye, 8 HR) was 13 ng Cromolyn/g or ml Tissue. The “TISSUE CONCENTRATION MEAN” value (CONJUNCTIVA, Rx eye, 2 HR, EXAMPLE 1) was 3501 ng Cromolyn/g or ml Tissue, the “TISSUE CONCENTRATION MEAN” value (CONJUNCTIVA, Rx eye, 2 HR, EXAMPLE 2) was 3316 ng Cromolyn/g or ml Tissue and the “TISSUE CONCENTRATION MEAN” value (CONJUNCTIVA, Rx eye, 2 HR, EXAMPLE 3) was 2332 ng Cromolyn/g or ml Tissue. For the same molecule, the “TISSUE CONCENTRATION WEIGHTED MEAN” value (CONJUNCTIVA, Rx eye, 2 HR) was 2887 ng Cromolyn/g or ml Tissue, the “TISSUE CONCENTRATION MEAN” value (CONJUNCTIVA, Rx eye, 4 HR, EXAMPLE 1) was 742 ng Cromolyn/g or ml Tissue and the “TISSUE CONCENTRATION MEAN” value (CONJUNCTIVA, Rx eye, 4 HR, EXAMPLE 2) was 683 ng Cromolyn/g or ml Tissue. The “TISSUE CONCENTRATION MEAN” value (CONJUNCTIVA, Rx eye, 4 HR, EXAMPLE 3) was 772 ng Cromolyn/g or ml Tissue, the “TISSUE CONCENTRATION WEIGHTED MEAN” value (CONJUNCTIVA, Rx eye, 4 HR) was 716 ng Cromolyn/g or ml Tissue and the “TISSUE CONCENTRATION MEAN” value (CONJUNCTIVA, Rx eye, 8 HR, EXAMPLE 1) was 687 ng Cromolyn/g or ml Tissue. For the same molecule, the “TISSUE CONCENTRATION MEAN” value (CONJUNCTIVA, Rx eye, 8 HR, EXAMPLE 2) was 578 ng Cromolyn/g or ml Tissue, the “TISSUE CONCENTRATION MEAN” value (CONJUNCTIVA, Rx eye, 8 HR, EXAMPLE 3) was 614 ng Cromolyn/g or ml Tissue and the “TISSUE CONCENTRATION WEIGHTED MEAN” value (CONJUNCTIVA, Rx eye, 8 HR) was 607 ng Cromolyn/g or ml Tissue. For the same molecule, the “TISSUE CONCENTRATION MEAN” value (CORNES, Rx eye, 2 HR, EXAMPLE 1) was 1005 ng Cromolyn/g or ml Tissue, the “TISSUE CONCENTRATION MEAN” value (CORNES, Rx eye, 2 HR, EXAMPLE 2) was 478 ng Cromolyn/g or ml Tissue and the “TISSUE CONCENTRATION MEAN” value (CORNES, Rx eye, 2 HR, EXAMPLE 3) was 683 ng Cromolyn/g or ml Tissue. For the same molecule, the “TISSUE CONCENTRATION WEIGHTED MEAN” value (CORNES, Rx eye, 2 HR) was 519 ng Cromolyn/g or ml Tissue, the “TISSUE CONCENTRATION MEAN” value (CORNES, Rx eye, 4 HR, EXAMPLE 1) was 487 ng Cromolyn/g or ml Tissue and the “TISSUE CONCENTRATION MEAN” value (CORNES, Rx eye, 4 HR, EXAMPLE 2) was 298 ng Cromolyn/g or ml Tissue. The “TISSUE CONCENTRATION MEAN” value (CORNES, Rx eye, 4 HR, EXAMPLE 3) was 381 ng Cromolyn/g or ml Tissue, the “TISSUE CONCENTRATION WEIGHTED MEAN” value (CORNES, Rx eye, 4 HR) was 337 ng Cromolyn/g or ml Tissue and the “TISSUE CONCENTRATION MEAN” value (CORNES, Rx eye, 8 HR, EXAMPLE 1) was 160 ng Cromolyn/g or ml Tissue. For the same molecule, the “TISSUE CONCENTRATION MEAN” value (CORNES, Rx eye, 8 HR, EXAMPLE 2) was 165 ng Cromolyn/g or ml Tissue, the “TISSUE CONCENTRATION MEAN” value (CORNES, Rx eye, 8 HR, EXAMPLE 3) was 127 ng Cromolyn/g or ml Tissue and the “TISSUE CONCENTRATION WEIGHTED MEAN” value (CORNES, Rx eye, 8 HR) was 162 ng Cromolyn/g or ml Tissue. The “TISSUE CONCENTRATION MEAN” value (IRIS-CILIARY BODY, Rx eye, 2 HR, EXAMPLE 3) was 56 ng Cromolyn/g or ml Tissue, the “TISSUE CONCENTRATION MEAN” value (IRIS-CILIARY BODY, Rx eye, 4 HR, EXAMPLE 3) was 29 ng Cromolyn/g or ml Tissue and the “TISSUE CONCENTRATION MEAN” value (NICTITATING MEMBRANE, Rx eye, 2 HR, EXAMPLE 1) was 2136 ng Cromolyn/g or ml Tissue. The “TISSUE CONCENTRATION MEAN” value (NICTITATING MEMBRANE, Rx eye, 2 HR, EXAMPLE 2) was 2438 ng Cromolyn/g or ml Tissue, the “TISSUE CONCENTRATION MEAN” value (NICTITATING MEMBRANE, Rx eye, 2 HR, EXAMPLE 3) was 2618 ng Cromolyn/g or ml Tissue and the “TISSUE CONCENTRATION WEIGHTED MEAN” value (NICTITATING MEMBRANE, Rx eye, 2 HR) was 2319 ng Cromolyn/g or ml Tissue. For the same molecule, the “TISSUE CONCENTRATION MEAN” value (NICTITATING MEMBRANE, Rx eye, 4 HR, EXAMPLE 1) was 480 ng Cromolyn/g or ml Tissue, the “TISSUE CONCENTRATION MEAN” value (NICTITATING MEMBRANE, Rx eye, 4 HR, EXAMPLE 2) was 484 ng Cromolyn/g or ml Tissue and the “TISSUE CONCENTRATION MEAN” value (NICTITATING MEMBRANE, Rx eye, 4 HR, EXAMPLE 3) was 576 ng Cromolyn/g or ml Tissue. The “TISSUE CONCENTRATION WEIGHTED MEAN” value (NICTITATING MEMBRANE, Rx eye, 4 HR) was 494 ng Cromolyn/g or ml Tissue, the “TISSUE CONCENTRATION MEAN” value (NICTITATING MEMBRANE, Rx eye, 8 HR, EXAMPLE 1) was 348 ng Cromolyn/g or ml Tissue and the “TISSUE CONCENTRATION MEAN” value (NICTITATING MEMBRANE, Rx eye, 8 HR, EXAMPLE 2) was 350 ng Cromolyn/g or ml Tissue. The “TISSUE CONCENTRATION MEAN” value (NICTITATING MEMBRANE, Rx eye, 8 HR, EXAMPLE 3) was 462 ng Cromolyn/g or ml Tissue, the “TISSUE CONCENTRATION WEIGHTED MEAN” value (NICTITATING MEMBRANE, Rx eye, 8 HR) was 383 ng Cromolyn/g or ml Tissue and the “TISSUE CONCENTRATION MEAN” value (PLASMA, 2 HR, EXAMPLE 3) was 1 ng Cromolyn/g or ml Tissue. For the same molecule, the “Cromolyn levels in the aqueous humor of the untreated eye” value (any time point (2, 4, 8 hours), Example 1 results text) was “no detectable”.
